In US6391921B1 (priority 2000, dated 2002):

Target: T1, Src family tyrosine kinase HCK (Homo sapiens, UniProt P08631)
T1 construct: expressed in transfected cells; host or cells: COS-7 cells transfected with pSV7c-HCK; immunoprecipitated with anti-HCK antibody
Assay: HCK kinase assay (immunoprecipitated from HCK-transfected COS-7 cells)
Format: biochemical
Conditions: FIG. 1C; 1 hour exposure
Method: For HCK kinase assays, HCK-transfected COS-7 cells were used. The cloning and expression of HCK in COS-7 cells has been described previously (ref 18). The pSV7c-HCK plasmid was transfected into 2×10^6 COS-7 cells using Lipofectamine (GIBCO/BRL), and the cells were harvested 48 hours later. The cells were lysed in NP-40 buffer and HCK was immunoprecipitated from the whole cell lysates with an anti-HCK antibody. Kinase assays were performed following a 1 hour exposure of the purified (BTK, SYK) or immunoprecipitated (HCK) tyrosine kinases to the test compound, as described in detail elsewhere (refs 18-22). Following electrophoresis, kinase gels were dried onto Whatman 3M filter paper and subjected to phosphoimaging on a Molecular Imager (Bio-Rad, Hercules, Calif.) as well as autoradiography on film. […] For each drug concentration, a BTK or SYK kinase activity index was determined by comparing the ratios of the kinase activity in phosphorimager units (PIU) and density of the protein bands in densitometric scanning units (DSU) to those of the baseline sample and using the formula: Activity Index=[PIU of kinase band/DSU of BTK/SYK protein band]test sample: [PIU of kinase band/DSU of BTK/SYK protein band]baseline control sample.

T1 sequence (P08631 whole entry): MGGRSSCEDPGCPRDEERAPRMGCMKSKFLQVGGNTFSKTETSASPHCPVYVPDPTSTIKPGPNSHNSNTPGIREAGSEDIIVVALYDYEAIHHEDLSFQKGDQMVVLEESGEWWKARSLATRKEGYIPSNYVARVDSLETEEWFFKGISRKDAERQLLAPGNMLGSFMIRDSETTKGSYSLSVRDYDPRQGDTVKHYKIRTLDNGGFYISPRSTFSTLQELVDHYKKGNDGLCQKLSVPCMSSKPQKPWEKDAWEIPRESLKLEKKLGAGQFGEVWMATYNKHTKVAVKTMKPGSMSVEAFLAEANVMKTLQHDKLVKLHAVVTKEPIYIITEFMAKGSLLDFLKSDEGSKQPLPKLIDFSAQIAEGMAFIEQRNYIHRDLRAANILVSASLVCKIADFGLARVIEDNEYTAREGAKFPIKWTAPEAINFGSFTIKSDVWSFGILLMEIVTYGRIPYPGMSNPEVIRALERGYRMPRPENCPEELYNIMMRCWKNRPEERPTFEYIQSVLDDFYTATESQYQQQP

COc1ccc(CC(=O)c2c(O)cc(O)cc2O)cc1 [Compound D-58]
IC50: > 200 µM
